PubChem BioAssay (NCI)
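Dose response: 5 concentrations. Exposure: 48 h. Format: 96-well plates. Endpoint: linear interpolation; highest concentration if not reached. At the GI50, growth is halved. TGI is the concentration that stops growth completely.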

Columns and labels:
Assay in all cases: inhibition of tumour cell growth, NCI panel, 48 h
HCC-2998 colon = test system: HCC-2998 colon
MALME-3M melanoma = test system: MALME-3M melanoma
OVCAR-8 ovarian = test system: OVCAR-8 ovarian
KM12 colon = test system: KM12 colon
MDA-MB-231 breast = test system: MDA-MB-231 breast
SN12C renal = test system: SN12C renal
T-47D breast = test system: T-47D breast
RPMI-8226 leukemia = test system: RPMI-8226 leukemia
ACHN renal = test system: ACHN renal
HL-60(TB) leukemia = test system: HL-60(TB) leukemia
EKVX NSCLC = test system: EKVX NSCLC
IGROV1 ovarian = test system: IGROV1 ovarian
HS 578T breast = test system: HS 578T breast
NCI-H522 lung = test system: NCI-H522 lung
TK-10 renal = test system: TK-10 renal
UO-31 renal = test system: UO-31 renal
SK-MEL-28 melanoma = test system: SK-MEL-28 melanoma
HT29 colon = test system: HT29 colon
DU-145 prostate = test system: DU-145 prostate
SF-539 CNS = test system: SF-539 CNS
NCI-H226 lung = test system: NCI-H226 lung
OVCAR-5 ovarian = test system: OVCAR-5 ovarian
UACC-62 melanoma = test system: UACC-62 melanoma
K-562 leukemia = test system: K-562 leukemia
NCI/ADR-RES ovarian = test system: NCI/ADR-RES ovarian
HCT-15 colon = test system: HCT-15 colon
HCT-116 colon = test system: HCT-116 colon
SNB-19 CNS = test system: SNB-19 CNS
A549 NSCLC = test system: A549 NSCLC
MDA-MB-435 = test system: MDA-MB-435
786-0 renal = test system: 786-0 renal
OVCAR-3 ovarian = test system: OVCAR-3 ovarian
CAKI-1 renal = test system: CAKI-1 renal
SK-MEL-5 melanoma = test system: SK-MEL-5 melanoma
SK-MEL-2 melanoma = test system: SK-MEL-2 melanoma
CCRF-CEM leukemia = test system: CCRF-CEM leukemia
A498 renal = test system: A498 renal
PC-3 prostate = test system: PC-3 prostate
UACC-257 melanoma = test system: UACC-257 melanoma
SNB-75 CNS = test system: SNB-75 CNS
MCF7 breast = test system: MCF7 breast
RXF 393 renal = test system: RXF 393 renal
OVCAR-4 ovarian = test system: OVCAR-4 ovarian
NCI-H23 lung = test system: NCI-H23 lung
BT-549 breast = test system: BT-549 breast
SK-OV-3 ovarian = test system: SK-OV-3 ovarian
COLO 205 colon = test system: COLO 205 colon
SF-268 CNS = test system: SF-268 CNS
M14 melanoma = test system: M14 melanoma
U251 CNS = test system: U251 CNS
NCI-H460 lung = test system: NCI-H460 lung
MOLT-4 leukemia = test system: MOLT-4 leukemia
SF-295 CNS = test system: SF-295 CNS
LOX IMVI melanoma = test system: LOX IMVI melanoma
HOP-62 NSCLC = test system: HOP-62 NSCLC
SW-620 colon = test system: SW-620 colon
HOP-92 NSCLC = test system: HOP-92 NSCLC
SR leukemia = test system: SR leukemia

## COCCOCCOCCOCCOC(=O)OC[n+]1ccc(NC(=NCCCCCCOc2ccc(Cl)cc2)NC#N)cc1
HCC-2998 colon
  GI50: 0.564 µM
  TGI: 20.5 µM
MALME-3M melanoma
  GI50: 12.1 µM
  TGI: 29.5 µM
OVCAR-8 ovarian
  GI50: < 0.01 µM
  TGI: 20.8 µM
KM12 colon
  GI50: < 0.0377 µM
  TGI: 17.3 µM
MDA-MB-231 breast
  GI50: 5.19 µM
  TGI: 23.7 µM
SN12C renal
  GI50: < 0.01 µM
  TGI: 15.7 µM
T-47D breast
  GI50: 0.112 µM
  TGI: 17.5 µM
RPMI-8226 leukemia
  GI50: < 0.01 µM
  TGI: 3.13 µM
ACHN renal
  GI50: 10.8 µM
  TGI: 23.4 µM
HL-60(TB) leukemia
  GI50: 3.25 µM
  TGI: 10.7 µM
EKVX NSCLC
  GI50: 3.93 µM
  TGI: 14.9 µM
IGROV1 ovarian
  GI50: 0.465 µM
  TGI: 24.7 µM
HS 578T breast
  GI50: 1.11 µM
  TGI: 43.6 µM
NCI-H522 lung
  TGI: 18.7 µM
TK-10 renal
  GI50: 13.2 µM
  TGI: 26.4 µM
UO-31 renal
  GI50: 11.3 µM
  TGI: 24.1 µM
SK-MEL-28 melanoma
  GI50: 11.1 µM
  TGI: 23.5 µM
HT29 colon
  GI50: 0.0369 µM
  TGI: 18.2 µM
DU-145 prostate
  GI50: 0.0616 µM
  TGI: 18.2 µM
SF-539 CNS
  GI50: < 0.01 µM
  TGI: 13.7 µM
NCI-H226 lung
  GI50: 12.7 µM
  TGI: 30.4 µM
OVCAR-5 ovarian
  GI50: 3.98 µM
  TGI: 22 µM
UACC-62 melanoma
  GI50: 9.97 µM
  TGI: 22.2 µM
K-562 leukemia
  GI50: 4.58 µM
  TGI: 20.5 µM
NCI/ADR-RES ovarian
  GI50: < 0.0395 µM
  TGI: 20.2 µM
HCT-15 colon
  GI50: < 0.01 µM
  TGI: 17.9 µM
HCT-116 colon
  GI50: < 0.01 µM
  TGI: 11.8 µM
SNB-19 CNS
  GI50: 0.199 µM
  TGI: 18.3 µM
A549 NSCLC
  GI50: 2.22 µM
  TGI: 19.2 µM
MDA-MB-435
  GI50: < 0.01 µM
  TGI: 14.7 µM
786-0 renal
  GI50: 10.3 µM
  TGI: 22.9 µM
OVCAR-3 ovarian
  GI50: 4.69 µM
  TGI: 19.3 µM
CAKI-1 renal
  GI50: 3.3 µM
  TGI: 20.5 µM
SK-MEL-5 melanoma
  GI50: 1.43 µM
  TGI: 11.6 µM
SK-MEL-2 melanoma
  GI50: 11.4 µM
  TGI: 27.3 µM
CCRF-CEM leukemia
  GI50: < 0.01 µM
  TGI: 15 µM
A498 renal
  GI50: 1.28 µM
  TGI: 15.4 µM
PC-3 prostate
  GI50: < 0.01 µM
  TGI: 14.2 µM
UACC-257 melanoma
  GI50: 7.79 µM
  TGI: 21.8 µM
SNB-75 CNS
  GI50: 14.1 µM
  TGI: 27.9 µM
MCF7 breast
  GI50: 0.873 µM
  TGI: 17.4 µM
RXF 393 renal
  GI50: 7.44 µM
  TGI: 22.3 µM
OVCAR-4 ovarian
  GI50: 6.47 µM
  TGI: 19.9 µM
NCI-H23 lung
  GI50: 4.23 µM
  TGI: 23.1 µM
BT-549 breast
  GI50: 5.71 µM
  TGI: 20.5 µM
SK-OV-3 ovarian
  GI50: 11.3 µM
  TGI: 23.6 µM
COLO 205 colon
  GI50: 0.231 µM
  TGI: 15.5 µM
SF-268 CNS
  GI50: 11.9 µM
  TGI: 26.9 µM
M14 melanoma
  GI50: 0.0409 µM
  TGI: 14.7 µM
U251 CNS
  TGI: 18.7 µM
NCI-H460 lung
  GI50: 0.124 µM
  TGI: 19.2 µM
MOLT-4 leukemia
  GI50: 1.95 µM
  TGI: 19.5 µM
SF-295 CNS
  GI50: < 0.0418 µM
  TGI: 12.5 µM
LOX IMVI melanoma
  GI50: 2.57 µM
  TGI: 20.6 µM
HOP-62 NSCLC
  GI50: 9.58 µM
  TGI: 24.1 µM
SW-620 colon
  GI50: < 0.01 µM
  TGI: 16.3 µM
HOP-92 NSCLC
  GI50: 1.7 µM
  TGI: 16.3 µM
SR leukemia
  GI50: 0.0905 µM
  TGI: > 45.6 µM
